Patent US20040023945A1, “CYCLIC AMP-SPECIFIC PHOSPHODIESTERASE INHIBITORS” (ICOS Corporation, priority 1999, published 2004)
Read-outs that look alike come from different tables or passages of the source.

Legend:
[1] = test system: recombinant human PDE4; test: Inhibition of recombinant human PDE4 (cAMP hydrolysis); details: read-out: PDE4 IC50
Method: The compounds of structural formula (II) were tested for an ability to inhibit PDE4. […] The IC, value for compounds of structural formula (II) were determined using recombinant human PDE4.
Phosphodiesterase activity of the preparations was determined as follows. […] In this assay, PDE activity converts [32P]cAMP or [32P]cGMP to the corresponding [32P]5′-AMP or [32P]5′-GMP in proportion to the amount of PDE activity present. The [32P]5′-AMP or [32P]5′-GMP then was quantitatively converted to free [32P]phosphate and unlabeled adenosine or guanosine by the action of snake venom 5′-nucleotidase. […] The assay was performed at 30° C. in a 100 μL reaction mixture containing (final concentrations) 40 mM Tris HCl (pH 8.0), 1 μM ZnSO4, 5 mM MgCl2, and 0.1 mg/mL bovine serum albumin (BSA). […] PDE enzyme was present in quantities that yield<30% total hydrolysis of substrate (linear assay conditions). The assay was initiated by addition of substrate (1 mM [32P]cAMP or cGMP), and the mixture was incubated for 12 minutes. Seventy-five (75) μg of Crotalus atrox venom then was added, and the incubation was continued for 3 minutes (15 minutes total). The reaction was stopped by addition of 200 μL of activated charcoal (25 mg/mL suspension in 0.1 M NaH2PO4, pH 4). After centrifugation (750×g for 3 minutes) to sediment the charcoal, a sample of the supernatant was taken for radioactivity determination in a scintillation counter and the PDE activity was calculated.

[2] = target: T1, PDE5 (Homo sapiens, UniProt O76074); test: Inhibition of PDE5; format: biochemical
T1 construct: made in house; host or cells: Saccharomyces cerevisiae BJ2-54

[3] = target: T2, PDE1B (Homo sapiens, UniProt Q01064); test: Inhibition of PDE1B; format: biochemical
T2 construct: made in house; host or cells: Saccharomyces cerevisiae BJ2-54

[4] = test system: ferret; test: Emetic modeling in the ferret following oral and intravenous dosing; format: in vivo, Mustela putorius furo
Method: This study was conducted to investigate the emetogenic properties of PDE4 inhibitors in vivo. The ferret previously has been established as a valuable tool for assessing emesis following exposure to test compounds. […] Therefore, lack of and/or decrease in emetic potential of test compounds in ferrets predicts a favorable nonemetic effect in humans. Emesis is a complex physiological response to noxious agents that can be intiated peripherally or centrally.
The test animals were adult, castrated, and descented male ferrets (species=Mustela putorius furo, Strain=Sable) ranging in weight from about 1 to 1.5 kg. The tests were performed in quadruplicate on animals that were naive to PDE4 inhibitors. The PDE4 inhibitors were formulated in 10% Polyoxyl-35 castor oil (CREMOPHOR® EL, available from BASF Corporation, Parsippany, N.J.) in phosphate buffered saline (PBS), and were administered via i.v. injections into an indwelling catheter surgically positioned in the right external jugular vein at a rate of 0.66 mL per kg body weight. PDE4 inhibitors for oral consumption were formulated in 30% CREMOPHOR® EL in PBS, and administered by intubating animals with a 16-gauge feeding needle into the stomach. The animals received the PDE4 inhibitors in a volume of 1.33 mL per kg body weight.
All animals were fasted for 8 to 12 hours prior to administration of PDE4 inhibitors. Following administration of a PDE4 inhibitor, emetic and behavioral responses were quantified for three hours post dosing. The total number of emetic responses and vomiting episodes were quantified during the observation interval. In addition, latency time to first emetic episode, duration of emesis episodes, and gross behavioral changes including ataxia, profuse and viscous salivation, mouth clawing, hyperventilation, backward walking, flattened body posture, hyperactivity, lip licking, and general appearance were recorded.
For comparative purposes, the emetogenic effect of Samples 66 and 69 were tested intravenously at 1.0, 2.5, 5.0, and 10 mg/kg and orally at 2.5, 10, 17, and 25 mg/kg.

[5] = target: T3, PDE3A (Homo sapiens, UniProt Q14432); test: Inhibition of PDE3A; format: biochemical
T3 construct: contained the complete open reading frame of PDE3A; made in house; host or cells: baculovirus-infected Sf9 cells

[6] = target: T4, PDE7 (Homo sapiens, UniProt Q13946); test: Inhibition of PDE7; format: biochemical
T4 construct: made in house; host or cells: Saccharomyces cerevisiae BJ2-54

[7] = test system: mouse; test: Subjective assessment of mouse immobility (CNS side effects); format: in vivo; details: subjective assessment of mouse immobility, i.p. 1, 10 and 100 mg/kg, 60 minutes
[8] = target: T5, human recombinant PDE4B (Homo sapiens, UniProt Q07343); test: Inhibition of human recombinant PDE4B; format: biochemical; details: read-out: IC50 vs. human recombinant PDE4B
T5 construct: made in house; host or cells: Saccharomyces cerevisiae strain YI23 harboring HDUN2.32

[9] = test system: human peripheral blood lymphocytes; test: Lipopolysaccharide-stimulated TNFα release from human peripheral blood lymphocytes; format: cell-based; details: Homo sapiens, Lymphocyte, LPS-stimulated TNFα release from human PBL; read-out: PBL/TNFα EC50
Summary of the method: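 Lymphocytes were isolated by Histopaque from heparinized human blood and plated at 3×10^6 cells/mL. Test compound was added 15 min before LPS ([…]), and cells were incubated 20 h at 37 °C. TNFα in the supernatant was measured by ELISA, and EC50 was taken as 50% inhibition of total TNFα.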

[10] = target: T6, PDE1A (Homo sapiens, UniProt P54750); test: Inhibition of PDE1A; format: biochemical
T6 construct: contained the complete open reading frame of PDE1A3; made in house; host or cells: baculovirus-infected Sf9 cells

[11] = test system: serum TNFα levels in LPS-injected mice; test: Inhibition of serum TNFα levels in LPS-injected mice (Mouse/TNFα ED50); format: in vivo; details: Mus musculus, stereoisomer comparison table; read-out: Mouse/TNFα ED50
Method: In order to assess the ability of a compound to reduce serum TNFα levels in mammals, the following protocol was employed. […] Accordingly, in vivo efficacy of a PDE4 reducing compound was shown by dosing with compound and measuring reduction of serum TNFα levels in LPS-injected mice. Female C3H mice, 20-25 gm body weight, were fasted overnight and dosed intraperitoneally with test compound in appropriate vehicle 60 minutes before LPS injection. Five μg of LPS was then injected intraperitoneally into the mice. Ninety minutes after LPS injection, mice were bled from the heart. Blood was allowed to clot overnight at 4° C. Samples were centrifuged for 10 minutes in a microcentrifuge and the serum removed and stored at −20° C. until analysis. Serum levels of TNFα were subsequently measured using a commercially available ELISA kit (Genzyme) following the protocol enclosed in the kit. The percent of inhibition of serum TNFα levels caused by the compound was determined relative to serum TNFα levels in control mice receiving vehicle alone. […]

[12] = target: T7, PDE2 (Homo sapiens, UniProt O00408); test: Inhibition of PDE2; format: biochemical
T7 construct: made in house; host or cells: Saccharomyces cerevisiae strain YI34

[13] = target: T8, PDE1C (Homo sapiens, UniProt Q14123); test: Inhibition of PDE1C; format: biochemical
T8 construct: contained the complete open reading frame of PDE1C3; made in house; host or cells: baculovirus-infected Sf9 cells

[14] = test system: Balb/c mice; test: Mouse locomotor activity assay (decrease in spontaneous mobility); details: in vivo, ip
Method: The purpose of this study was to determine the efficacy of PDE4 inhibitors in vivo in an LPS mouse model together with a determination with respect to central nervous system (CNS) side-effects manifested by a decrease in spontaneous mobility.
The test animals were female Balb/c mice, having an average weight of about 20 g. The PDE4 inhibitors, formulated in 30% Cremophor® EL, were administered via intraperitoneal (i.p.) injections at doses of 0.1, 1.0, 10.0, and 100 mg/kg. Individual dose volumes (about 150 μL) were adjusted based on the body weights measured. One hour later, 5 mg/kg LPS in a final volume of 200 μL was injected via the tail vein to each animal. Ninety minutes following the LPS treatment, the animals were bled and serum samples were collected before being stored at −70° C. until assayed.
Movement of the X-Y plane, or rearing up on the hind legs, was quantified by counting the number of “light-beam” crosses per unit of time. A decrease in the number of activity events is directly proportional to the mobility or immobilization of the animal. The quantitative scoring correlated well with the subjective measurements described above.

T5 sequence (Q07343 whole entry): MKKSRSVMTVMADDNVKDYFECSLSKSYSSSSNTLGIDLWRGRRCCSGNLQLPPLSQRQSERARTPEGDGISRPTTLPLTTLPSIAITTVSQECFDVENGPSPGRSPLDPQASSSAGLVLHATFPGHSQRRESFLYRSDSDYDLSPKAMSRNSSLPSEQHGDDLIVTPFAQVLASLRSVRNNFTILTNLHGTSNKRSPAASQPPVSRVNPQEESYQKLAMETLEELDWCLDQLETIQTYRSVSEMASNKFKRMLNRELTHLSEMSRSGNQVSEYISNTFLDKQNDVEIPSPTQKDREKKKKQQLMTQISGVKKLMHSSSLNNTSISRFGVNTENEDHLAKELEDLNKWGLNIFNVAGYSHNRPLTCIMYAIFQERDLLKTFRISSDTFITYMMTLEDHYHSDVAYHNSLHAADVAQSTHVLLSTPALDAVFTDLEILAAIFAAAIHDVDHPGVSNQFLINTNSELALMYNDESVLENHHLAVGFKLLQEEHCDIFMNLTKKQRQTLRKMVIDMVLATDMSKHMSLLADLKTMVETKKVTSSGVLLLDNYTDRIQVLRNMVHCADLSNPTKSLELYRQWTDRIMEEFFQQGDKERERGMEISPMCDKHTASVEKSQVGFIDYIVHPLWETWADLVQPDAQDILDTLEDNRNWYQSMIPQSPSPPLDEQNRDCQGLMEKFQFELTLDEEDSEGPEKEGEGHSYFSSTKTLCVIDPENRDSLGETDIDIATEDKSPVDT
T7 sequence (O00408 whole entry): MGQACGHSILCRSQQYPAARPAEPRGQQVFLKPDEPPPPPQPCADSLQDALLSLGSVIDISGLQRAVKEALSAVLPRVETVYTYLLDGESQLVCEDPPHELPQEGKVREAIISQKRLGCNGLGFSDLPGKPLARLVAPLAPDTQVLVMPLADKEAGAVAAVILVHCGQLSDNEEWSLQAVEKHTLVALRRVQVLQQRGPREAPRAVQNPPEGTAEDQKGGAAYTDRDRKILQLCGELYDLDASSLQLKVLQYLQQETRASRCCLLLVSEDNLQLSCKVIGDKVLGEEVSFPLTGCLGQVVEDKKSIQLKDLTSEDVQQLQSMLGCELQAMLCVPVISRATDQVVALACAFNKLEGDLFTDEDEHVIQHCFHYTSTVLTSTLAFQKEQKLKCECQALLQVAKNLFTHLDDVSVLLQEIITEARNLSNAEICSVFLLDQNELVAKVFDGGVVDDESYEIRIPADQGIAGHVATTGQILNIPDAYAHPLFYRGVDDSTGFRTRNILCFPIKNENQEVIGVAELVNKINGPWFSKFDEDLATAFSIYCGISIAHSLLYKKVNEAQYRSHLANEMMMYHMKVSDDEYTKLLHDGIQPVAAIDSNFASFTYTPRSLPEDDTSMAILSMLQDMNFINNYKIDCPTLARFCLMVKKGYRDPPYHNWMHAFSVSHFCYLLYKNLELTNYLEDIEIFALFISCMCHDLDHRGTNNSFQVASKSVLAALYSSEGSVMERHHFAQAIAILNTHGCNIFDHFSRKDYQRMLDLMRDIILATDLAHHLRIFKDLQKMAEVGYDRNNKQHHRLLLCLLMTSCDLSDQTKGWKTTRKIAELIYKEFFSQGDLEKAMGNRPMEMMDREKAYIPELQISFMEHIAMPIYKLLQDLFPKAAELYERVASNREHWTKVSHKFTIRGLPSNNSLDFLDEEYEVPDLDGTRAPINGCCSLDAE
T4 sequence (Q13946 whole entry): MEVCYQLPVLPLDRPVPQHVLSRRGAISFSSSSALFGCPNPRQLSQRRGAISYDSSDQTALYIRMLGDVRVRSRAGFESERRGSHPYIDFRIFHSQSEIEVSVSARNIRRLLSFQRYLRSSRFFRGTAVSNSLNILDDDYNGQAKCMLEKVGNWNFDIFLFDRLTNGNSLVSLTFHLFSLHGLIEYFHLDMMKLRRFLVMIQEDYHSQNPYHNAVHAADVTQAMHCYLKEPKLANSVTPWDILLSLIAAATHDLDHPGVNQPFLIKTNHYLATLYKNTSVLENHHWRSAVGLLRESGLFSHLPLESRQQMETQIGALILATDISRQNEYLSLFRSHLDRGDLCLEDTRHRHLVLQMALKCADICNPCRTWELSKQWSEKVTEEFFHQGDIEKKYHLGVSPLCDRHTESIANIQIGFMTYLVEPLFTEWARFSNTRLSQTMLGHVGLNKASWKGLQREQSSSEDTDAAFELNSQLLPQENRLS
T3 sequence (Q14432 whole entry): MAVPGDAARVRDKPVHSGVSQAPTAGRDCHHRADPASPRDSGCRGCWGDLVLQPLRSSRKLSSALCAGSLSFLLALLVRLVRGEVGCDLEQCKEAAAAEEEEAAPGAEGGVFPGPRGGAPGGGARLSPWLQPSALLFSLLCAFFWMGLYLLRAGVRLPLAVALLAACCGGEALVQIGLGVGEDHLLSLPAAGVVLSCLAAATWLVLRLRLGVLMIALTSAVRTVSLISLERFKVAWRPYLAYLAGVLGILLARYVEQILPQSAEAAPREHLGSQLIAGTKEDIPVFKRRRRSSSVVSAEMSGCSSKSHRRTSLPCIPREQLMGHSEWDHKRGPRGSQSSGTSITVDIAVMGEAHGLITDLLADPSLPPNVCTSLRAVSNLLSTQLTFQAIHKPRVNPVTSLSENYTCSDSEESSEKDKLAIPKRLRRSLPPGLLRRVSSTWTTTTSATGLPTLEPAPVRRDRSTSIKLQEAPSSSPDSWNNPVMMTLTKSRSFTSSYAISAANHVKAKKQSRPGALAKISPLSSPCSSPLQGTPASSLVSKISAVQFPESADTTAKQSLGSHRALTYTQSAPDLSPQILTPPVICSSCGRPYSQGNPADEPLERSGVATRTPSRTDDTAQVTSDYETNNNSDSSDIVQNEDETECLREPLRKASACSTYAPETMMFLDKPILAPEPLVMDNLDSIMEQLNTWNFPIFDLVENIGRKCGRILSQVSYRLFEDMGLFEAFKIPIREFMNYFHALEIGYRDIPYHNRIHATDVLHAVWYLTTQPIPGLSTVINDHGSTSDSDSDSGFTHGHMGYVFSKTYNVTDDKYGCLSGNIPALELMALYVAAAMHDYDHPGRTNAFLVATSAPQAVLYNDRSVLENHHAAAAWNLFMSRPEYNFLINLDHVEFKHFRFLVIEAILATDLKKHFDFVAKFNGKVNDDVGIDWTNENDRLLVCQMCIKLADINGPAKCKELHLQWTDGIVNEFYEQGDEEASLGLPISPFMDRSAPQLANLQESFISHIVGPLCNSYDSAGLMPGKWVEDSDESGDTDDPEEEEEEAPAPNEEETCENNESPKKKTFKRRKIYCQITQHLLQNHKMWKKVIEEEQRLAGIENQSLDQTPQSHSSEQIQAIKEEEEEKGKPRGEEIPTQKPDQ

COC(=O)N1C[C@@H](c2ccc(OC)c(OC3CCCC3)c2)[C@](C)([C@@H](C)O)C1 [(C)]
IC50 ([1]; human recombinant PDE4): 0.014 µM | IC50 ([1]; stereoisomer comparison table): 0.014 µM | IC50 [2]: 270 µM | IC50 [3]: 100 µM | Number of Emetic Events: Retches ([4]; intravenous 1.0 mg/kg): 0 | Number of Emetic Events: Total ([4]; intravenous 1.0 mg/kg): 0 | Number of Emetic Events: Vomits ([4]; intravenous 1.0 mg/kg): 0 | Responders ([4]; intravenous 1.0 mg/kg): 0/4 | Number of Emetic Events: Retches ([4]; intravenous 2.5 mg/kg): 0 | Number of Emetic Events: Total ([4]; intravenous 2.5 mg/kg): 0 | Number of Emetic Events: Vomits ([4]; intravenous 2.5 mg/kg): 0 | Responders ([4]; intravenous 2.5 mg/kg): 0/4 | Number of Emetic Events: Retches ([4]; intravenous 5.0 mg/kg): 10 | Number of Emetic Events: Total ([4]; intravenous 5.0 mg/kg): 10 | Number of Emetic Events: Vomits ([4]; intravenous 5.0 mg/kg): 0 | Responders ([4]; intravenous 5.0 mg/kg): 2/4 | Number of Emetic Events: Retches ([4]; intravenous 10.0 mg/kg): 27 | Number of Emetic Events: Total ([4]; intravenous 10.0 mg/kg): 31 | Number of Emetic Events: Vomits ([4]; intravenous 10.0 mg/kg): 4 | Responders ([4]; intravenous 10.0 mg/kg): 4/4 | distress after intravenous dosing ([4]; intravenous 10 mg/kg body weight): none displayed the distress | Number of Emetic Events: Retches ([4]; oral 2.5 mg/kg): 0 | Number of Emetic Events: Total ([4]; oral 2.5 mg/kg): 0 | Number of Emetic Events: Vomits ([4]; oral 2.5 mg/kg): 0 | Responders ([4]; oral 2.5 mg/kg): 0/4 | Number of Emetic Events: Retches ([4]; oral 10.0 mg/kg): 14 | Number of Emetic Events: Total ([4]; oral 10.0 mg/kg): 22 | Number of Emetic Events: Vomits ([4]; oral 10.0 mg/kg): 8 | Responders ([4]; oral 10.0 mg/kg): 2/4 | Number of Emetic Events: Retches ([4]; oral 17.0 mg/kg): 17 | Number of Emetic Events: Total ([4]; oral 17.0 mg/kg): 18 | Number of Emetic Events: Vomits ([4]; oral 17.0 mg/kg): 1 | Responders ([4]; oral 17.0 mg/kg): 2/3 | Number of Emetic Events: Retches ([4]; oral 25.0 mg/kg): 61 | Number of Emetic Events: Total ([4]; oral 25.0 mg/kg): 73 | Number of Emetic Events: Vomits ([4]; oral 25.0 mg/kg): 12 | Responders ([4]; oral 25.0 mg/kg): 4/4 | IC50 [5]: 40 µM | IC50 [6]: 36 µM | CNS Side Effects [7]: No effect | IC50 [8]: 0.015 µM | EC50 [9]: 0.0716 µM | IC50 [10]: 80 µM | ED50 [11]: 5 mg/kg | IC50 [12]: 450 µM | IC50 [13]: 12 µM

COc1ccc([C@@H]2CN(C(=O)CNC(=O)OCc3ccccc3)C[C@@]2(C)[C@@H](C)O)cc1OC1Cc2ccccc2C1 [Example 29, N-(2-[3-((1R)-1-Hydroxyethyl)(3S,4S)-4-(3-indan-2-yloxy-4-methoxyphenyl)-3-methylpyrrolidinyl]-2-oxoethyl}(phenylmethoxy)carboxamide]
ED50, effective dose that decreases spontaneous mobility 50% of control [14]: 9.8 mg/kg
